Among the data in paper PMC10385579, “Design, Synthesis, and Biological Evaluation of Indole-2-carboxamides as Potential Multi-Target Antiproliferative Agents” (Pharmaceuticals, 2023) are IC50 and melting point values, retold here.

Data set [1] deals with human epithelial (A-549) cancer cell line. Description: Antiproliferative assay, A-549. It counts as cell-based. The following applies: A549, read-out: Antiproliferative Activity IC50 ± SEM, A-549. As for the experimental part:
(§1) 4.2.1.2. Assay for antiproliferative effect
(§2) To explore the antiproliferative potential of compounds propidium iodide fluorescence assay was performed using different cell lines such as Panc-1 (pancreas cancer cell line), MCF-7 (breast cancer cell line), HT-29 (colon cancer cell line) and A-549 (epithelial cancer cell line), respectively.
(§3) To calculate the total nuclear DNA, a fluorescent dye (propidium iodide, PI) is used which can attach to the DNA, thus offering a quick and precise technique. PI cannot pass through the cell membrane and its signal intensity can be considered as directly proportional to quantity of cellular
(§4) DNA. Cells whose cell membranes are damaged or have changed permeability are counted as dead ones. The assay was performed by seeding the cells of different cell lines at a density of 3000-7500 cells/well (in200μl medium) in culture plates followed by incubation for 24h at 37 °C in humidified 5%CO2/95% air atmospheric conditions. The medium was removed; the compounds were added to the plates at 10 μM concentrations (in 0.1% DMSO) in triplicates, followed by incubation for 48h. DMSO (0.1%) was used as control. After incubation, medium was removed followed by the addition of PI (25 μl, 50μg/mL in water/medium) to each well of the plates. At - 80 °C, the plates were allowed to freeze for 24 h, followed by thawing at 25 °C. A fluorometer (Polar-Star BMG Tech) was used to record the readings at excitation and emission wavelengths of 530 and 620 nm for each well. The percentage cytotoxicity of compounds was calculated using […]
(§5) Where ATC= Absorbance of treated cells and AC= Absorbance of control. Erlotinib was used as positive control in the assay.

The subject of data set [2] is breast cancer (MCF-7) cell line. Put plainly: Antiproliferative assay, MCF-7. It counts as cell-based. The conditions noted are these: Homo sapiens, MCF7; read-out: Antiproliferative Activity IC50 ± SEM, MCF-7. Here is the method:
as §1, §2, §3, §4, §5

Data set [3] deals with EGFR (Homo sapiens, UniProt P00533). Description: EGFR inhibitory assay.
The target in data set [4] is VEGFR-2 (Homo sapiens, UniProt P35968). Description: VEGFR-2 inhibitory assay.
VEGFR-2, sequence (P35968 20-1356): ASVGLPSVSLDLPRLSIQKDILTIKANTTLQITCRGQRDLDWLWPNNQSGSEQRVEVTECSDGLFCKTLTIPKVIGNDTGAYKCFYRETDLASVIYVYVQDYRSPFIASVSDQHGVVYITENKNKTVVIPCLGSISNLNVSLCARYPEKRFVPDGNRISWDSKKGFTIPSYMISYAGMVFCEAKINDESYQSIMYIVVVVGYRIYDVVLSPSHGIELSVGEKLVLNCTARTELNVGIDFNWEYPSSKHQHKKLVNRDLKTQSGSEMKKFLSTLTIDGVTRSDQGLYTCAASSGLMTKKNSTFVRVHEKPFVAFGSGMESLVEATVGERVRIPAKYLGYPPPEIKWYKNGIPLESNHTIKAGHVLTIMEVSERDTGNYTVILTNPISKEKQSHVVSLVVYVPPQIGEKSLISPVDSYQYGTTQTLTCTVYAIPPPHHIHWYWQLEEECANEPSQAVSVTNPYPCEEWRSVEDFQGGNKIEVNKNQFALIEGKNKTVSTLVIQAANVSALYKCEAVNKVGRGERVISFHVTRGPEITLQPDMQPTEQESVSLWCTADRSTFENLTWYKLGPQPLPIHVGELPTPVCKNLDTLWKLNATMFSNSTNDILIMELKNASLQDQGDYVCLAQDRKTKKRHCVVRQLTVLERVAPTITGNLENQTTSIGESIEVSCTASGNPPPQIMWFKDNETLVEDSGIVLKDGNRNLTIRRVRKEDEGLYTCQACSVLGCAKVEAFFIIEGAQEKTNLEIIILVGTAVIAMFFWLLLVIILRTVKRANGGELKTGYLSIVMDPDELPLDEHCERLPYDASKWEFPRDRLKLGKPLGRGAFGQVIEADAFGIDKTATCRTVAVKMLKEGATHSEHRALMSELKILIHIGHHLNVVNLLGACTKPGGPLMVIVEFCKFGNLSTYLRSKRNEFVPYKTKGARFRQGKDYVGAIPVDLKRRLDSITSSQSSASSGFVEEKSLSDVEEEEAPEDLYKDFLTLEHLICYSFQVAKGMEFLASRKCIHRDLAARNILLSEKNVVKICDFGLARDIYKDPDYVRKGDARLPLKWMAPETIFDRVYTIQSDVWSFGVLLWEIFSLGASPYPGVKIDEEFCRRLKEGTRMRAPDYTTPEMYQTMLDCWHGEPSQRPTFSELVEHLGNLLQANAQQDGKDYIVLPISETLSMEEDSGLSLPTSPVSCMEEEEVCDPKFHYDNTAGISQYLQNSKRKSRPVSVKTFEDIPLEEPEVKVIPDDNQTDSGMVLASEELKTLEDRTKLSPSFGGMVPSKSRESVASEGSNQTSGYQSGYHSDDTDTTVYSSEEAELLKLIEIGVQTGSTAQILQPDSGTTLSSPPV
Procedure: Prepare all the solutions using autoclaved, deionized water and analytical grade reagents.
and store all the reagents at room temperature (unless indicated otherwise).
solution, add 5 mL ultra-pure water; 1×Kinase Assay Buffer: add 25 mL HEPES solution (1 M),
water, adjust pH to 7.5 and constant volume to 500 mL using ultrapure water; 4×Stop solution (40
mM): Mix 0.8 mL of the foregoing EDTA solution, 1 mL 10×Detection Buffer and 8.2 mL ultra-
pure water; 1×Detection Buffer: Mix 1 mL 10×Detection Buffer with 9 mL water; 4×VEGFR
μM) was added to 624 μL 1×Kinase Assay Buffer and mixed; 4×ULight™-labeled JAK1
concentration 5 μM) was added to 576 μL 1×Kinase Assay Buffer and mixed; 4×ATP Solution
2×substrate/ATP Mix: 560 μL foregoing 4×ULight™-labeled JAK1 and 560 μL 4×ATP solution
and mixed (prepared before use). The assays used an ULight-labeled peptide substrate and a
Europium-W1024-labeled antiphosphotyrosine antibody. The VEGFR-2 was purchased from
Carna Biosciences, Inc. (New York, USA). The 384-well plates were obtained from PerkinElmer.
5 μL 2×VEGFR-2 kinase solution (0.5 nM)
was added to 384-well plates homogeneous mixing and pre-reaction at room temperature for 30 min. Next, 2.5 μL 4×Ultra ULightTM-JAK-1(Tyr1023) Peptide (200 nM)/ATP (40 μM) was added to the corresponding wells of a 384-well plate. Negative control: 2.5 μL/well 4×substrate/ATP mixture and 7.5 μL 1×kinase assay buffer in 384-well plate well. Positive control:
μL/well 2×VEGFR-2 kinase solution was added to the 384-well plate, The final concentration of DMSO in the mixing system was 4%. After incubation at room temperature and dark for 60 min, 5 μL 4×stop solution was added to corresponding wells to react for 5 min and then 5 μL 4×detection mix was added to the corresponding wells of a 384-well plate. The mixture was centrifugally mixed and stayed for 60 min at room temperature for color development. The plate was read using a Envision plate reader. The inhibition rate (%) = (positive well reading-compound well reading)/(positive well reading-negative well reading)×100. The corresponding IC50 values were calculated using GraphPad Prism 5.0.

EGFR, sequence (P00533 669-1210): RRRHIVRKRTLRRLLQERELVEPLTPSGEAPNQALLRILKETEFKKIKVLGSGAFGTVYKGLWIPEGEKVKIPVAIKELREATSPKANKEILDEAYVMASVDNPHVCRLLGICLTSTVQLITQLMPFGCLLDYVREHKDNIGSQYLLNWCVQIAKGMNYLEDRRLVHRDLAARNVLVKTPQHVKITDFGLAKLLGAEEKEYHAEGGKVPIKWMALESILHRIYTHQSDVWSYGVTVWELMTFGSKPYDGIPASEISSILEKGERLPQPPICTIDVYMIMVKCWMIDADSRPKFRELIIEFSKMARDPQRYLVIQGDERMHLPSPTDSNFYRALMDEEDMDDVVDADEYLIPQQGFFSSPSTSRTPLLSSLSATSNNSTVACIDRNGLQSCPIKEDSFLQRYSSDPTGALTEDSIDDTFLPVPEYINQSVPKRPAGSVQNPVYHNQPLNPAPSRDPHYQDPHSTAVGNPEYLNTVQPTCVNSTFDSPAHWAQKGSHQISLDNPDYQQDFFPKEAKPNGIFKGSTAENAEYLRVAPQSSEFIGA

As to `O=C(NCC(c1ccccc1)c1c(-c2ccccc2)[nH]c2ccccc12)c1cc2cc(Cl)ccc2[nH]1` (stereo not shown) [Compound Va, 5-Chloro-N-(2-phenyl-2-(2-phenyl-1H-indol-3-yl)ethyl)-1H-indole-2-carboxamide], the melting point (commonly the temperature, or range, at which the solid turns liquid) lay within 112 to 114 °C. Also, in data set [1], the IC50 (usually the concentration needed to halve the response being measured) was 25 ± 2 nM. Also, the IC50 in data set [2] came to 28 ± 2 nM. Further, the IC50 in data set [3] is 71 ± 6 nM. In data set [4], this molecule had an IC50 of 2.15 ± 0.2 nM.

`CO/C=C/c1c(C(=O)NCC(c2ccccc2)c2c(-c3ccccc3)[nH]c3ccccc23)[nH]c2ccc(Cl)cc12` (stereo not shown) [Compound Vg, (E)-5-Chloro-3-(2-methoxyvinyl)-N-(2-phenyl-2-(2-phenyl-1H-indol-3-yl)ethyl)-1H-indole-2-carboxamide]: the melting point was in the range of 140 to 142 °C. The IC50 in data set [1] stood at 30 ± 2 nM. Also, the IC50 in data set [2] was 33 ± 3 nM. The molecule also returned an IC50 in data set [3] of 79 ± 6 nM. In data set [4], this molecule came in with an IC50 of 1.6 ± 0.1 nM.
